Assay results reported in PMC4608580, “Synthesis and Evaluation of Biological Activity of Antimicrobial – Pro-Proliferative Peptide Conjugates” (PLoS ONE, 2015).
Values after ≈ are worked out from the molar mass of the structure shown. Residues, ends and D or L forms follow the SMILES beside them.

Experiments:
B. cereus = type: cell-based; conditions: 24 h
Protocol: (§1) Luria-Bertani broth (LB) and Sabouraud Dextrose broth (SB) (Biocorp, Poland) were used for cultivation of bacteria and fungi strains, respectively. Antimicrobial activity of peptides was analyzed through determination of MIC (minimal inhibitory concentration) parameter according to the standard microdilution technique performed on 96-well plates. Mueller-Hinton broth (MHB) was used as the working medium for all bacterial strains, while in case of fungi it was additionally supplemented with 2% glucose.
(§2) Briefly, inoculum was prepared from freshly grown cultures of microorganisms being at their exponential phase of growth. Each well of 96-well plates containing 100 μL of serially diluted peptides in PBS (phosphate buffer saline) at concentration ranging from 2 to 250 μg/mL were inoculated with 100 μL of approximately 10^5 CFU/mL of bacterial suspension or about 2.5 x 10^3 CFU/mL of fungi suspended in a double concentrated Mueller-Hinton broth (supplemented with 2% glucose for Candida spps.). Then plates were incubated overnight at 37°C and absorbance was read at 590 nm after 24 h. Cultures without peptide were treated as positive control, while uninoculated Mueller-Hinton broth was defined as negative control. All measurements were run at least in triplicate.
(§3) All peptides were screened against the wide range of microorganisms, including Gram-negative, Gram-positive bacteria and fungi from Candida species (Table 2). Broth microdilution method for MIC determination was used as a standard procedure. All assays were performed on liquid Mueller-Hinton broth, which was additionally supplemented with 2% glucose when fungicidal activity towards Candida spps. was analyzed.

[1] = test system: Escherichia coli (PCM 2057); type: cell-based; conditions: PCM 2057, 24 h
Excerpt: (§4) Escherichia coli (PCM 2057), Staphylococcus aureus (PCM 2054), Staphylococcus epidermidis (PCM 2118), Pseudomonas aeruginosa (PCM 499) were obtained from Polish Collection of Microorganisms. Fungi strains Candida albicans (CCM 8186), Candida glabrata (CCM 8270), Candida parapsilosis (CCM 8260), Candida krusei (CCM 8271), Candida tropicalis (CCM 8264) were acquired from Czech Collection of Microorganisms.
as §1, §2, §3

[2] = test system: Pseudomonas aeruginosa (PCM 499); type: cell-based; conditions: PCM 499, 24 h
Excerpt: as §4, §1, §2, §3

[3] = test system: Staphylococcus aureus (PCM 2054); type: cell-based; conditions: PCM 2054, 24 h
Excerpt: as §4, §1, §2, §3

[4] = test system: Staphylococcus epidermidis (PCM 2118); type: cell-based; conditions: PCM 2118, 24 h
Excerpt: as §4, §1, §2, §3

[5] = test system: immortalized human HaCaT keratinocytes; assay: Cell proliferation assay (MTT); type: cell-based; conditions: 72 h, serum-free DMEM, peptide at 1–25 μg/mL
Protocol: (§5) In our study two kind of cells were used: immortalized human HaCaT keratinocytes (DKFZ Heidelberg, Germany) and primary dermal fibroblasts obtained from 3 healthy donors. Both types of the used cell lines were grown in Dulbecco's modified Eagle's medium (DMEM) (Sigma–Aldrich, Germany), that contained […] of glucose, […] of L-glutamine, sodium pyruvate and sodium bicarbonate. Additionally, medium was supplemented with 10% of FCS (fetal calf serum, Sigma-Aldrich, Germany), 100 U/mL of penicillin and 100 μg/mL streptomycin (Sigma-Aldrich, Germany). The cells were grown in culture dishes (BD, USA) under standard conditions in a humidified atmosphere with 5% CO2 at 37°C and medium was changed every 2 days.
(§6) The fibroblasts and keratinocytes were seeded at density of 4500 and 6000 cells per well, respectively, into 96-well plates suspended in a medium supplemented with 10% of FCS. After 24 h the media were exchanged with serum- and antibiotic- free DMEM and tested peptides dissolved in PBS were added yielding final concentration ranging from 1 to 50 μg/mL. Cells were incubated for the next 24 hours, when the medium was exchanged again and fresh portion of peptides (used at the same concentrations as previously) was added. Incubation was continued for the next 48 hours (the overall time of cell exposition to peptide was 72 h). At the end of the experiment cells were treated with 20 μL of MTT (5 mg/mL in PBS). After 3 h at 37°C under 5% CO2 medium was discarded and replaced by 6mM HCl in isopropanol. After 15 min when the purple crystals of formazan were fully solubilized, absorbance was read at 570 nm with a plate reader. The optical density reflects the level of cell viability as MTT is converted in purple formazan product only in the presence of viable mitochondria of the living cells.
Fig 1 Pro-proliferative activity of the tested peptides towards human keratinocytes (A) and fibroblasts (B). Cells were incubated for 72 hours in serum-free DMEM medium in the presence of peptides applied at concentrations of 1,10, 25 and 50 μg/mL, respectively. The data represents results of MTT assay expressed as the percentage of the cell viability in comparison to their control sample (cells incubated in serum-free DMEM without tested peptides), additional positive control corresponds to the cells incubated in the presence of 10% FCS. All experiments were performed independently in triplicate. *P < 0.05, **P < 0.01, ***P < 0.001 vs. control.
In order to evaluate a long-term effect of peptides, experiments were carried out for 72 hours. Before addition of the tested compounds, the cell medium was exchanged for the fresh one not containing any serum or antibiotic.

[6] = test system: human primary dermal fibroblasts; assay: Cell proliferation assay (MTT); type: cell-based; conditions: 72 h, serum-free DMEM, dose-response relationship, peptide at 50 μg/mL
Protocol: Biopsies of healthy human skin were obtained aseptically from three donors (47–69 years old) undergoing circumcision after obtaining their written informed consent. All the procedures were approved by the Ethics Committee of Medical University of Gdansk (NKEBN/483/2011. Issued: 2011-12-19). The samples were washed several times with sterile PBS (Sigma-Aldrich, Germany) containing antibiotic (200 U/mL penicillin and 200 μg/mL streptomycin), after which, the subcutaneous tissue was cut off with a sharp blade. The resulting sheets were cut into small fragments, washed two times with sterile PBS and treated with 6 U/mL dispase II (BD, USA) overnight at 4°C to separate epidermis and dermis. The dermis was then digested with 1.0 mg/mL collagenase type I (from Clostridium histolyticum Sigma-Aldrich, Germany) for 2 hours at 37°C to isolate fibroblasts. Cells were used between the 2nd and 4th passage in all experiments.
as §5
as §6, with “At the end of the experiment cells were treated with 20 μL of MTT (5 mg/mL in PBS). After 3 h at 37°C under 5% CO2 medium was discarded and replaced by 6mM HCl in isopropanol.” left out, “The optical density reflects the level of cell viability as MTT is converted in purple formazan product only in the presence of viable mitochondria of the living cells.” left out
Fig 1 Pro-proliferative activity of the tested peptides towards human keratinocytes (A) and fibroblasts (B). […] The data represents results of MTT assay expressed as the percentage of the cell viability in comparison to their control sample (cells incubated in serum-free DMEM without tested peptides), additional positive control corresponds to the cells incubated in the presence of 10% FCS. […]

[7] = Circular dichroism, alpha-helical content; type: physicochemical; conditions: CD, mean residue ellipticity at 222 nm (Eq 1), peptide 0.4 mg/ml in 30 mM SDS, room temperature
Protocol: Circullar dichroism spectra of analyzed compounds were recorded on a Jasco J-815 spectropolarimeter using a quartz cell of 1 mm path length between 195–260 nm at room temperature. Peptides at concentration of 0.4 mg/ml were dissolved in water or 30 mM SDS solution. SDS micelle system was used as the simplified model of negatively charged lipid membrane. On the basis of the obtained results the alpha-helical content was determined from the mean residue ellipticities at 222 nm according to Eq 1: %Helix=([θ]obs/([θ]helixx(1−2.57/l))x100, (1) where [θ] obs is the experimentally observed mean-residue ellipticity at 222 nm, [θ]helix is the theoretical ellipticity of peptide of infinite length with a 100% helix population, taken as -39 500 deg·cm^2/dmol, and l is the number of peptide bonds.
Circular dichroism method was applied to obtain a basic information about the secondary structure of the synthesized compounds (with the exception of CAR, CAR3, DAL, CTEN2) in two chemical environments, water and 30 mM SDS. As expected, all the tested compounds in water adopted a random-coil structure, while in the presence of 30 mM SDS most of them formed α-helices with characteristic negative minima around 208 and 220 nm. […] The examples of CD spectra for selected peptides could be seen in supporting information (Figure A in S1 File). On the basis of the experimentally obtained values of the mean residue ellipticities of peptides at 222 nm their alpha-helical content was calculated according to the Eq 1 (Table 1).

In the case of CC(C)C[C@H](NC(=O)CNC(=O)[C@@H](N)CCC(=O)O)C(=O)N[C@@H](CCC(=O)O)C(=O)N1CCC[C@H]1C(=O)NCC(=O)NCCOCCOCC(=O)N[C@@H](CCCCN)C(=O)N[C@@H](CCCCN)C(=O)N[C@H](C(=O)N[C@H](C(=O)N[C@@H](Cc1ccccc1)C(=O)N[C@@H](Cc1c[nH]c2ccccc12)C(=O)N[C@H](C(=O)N[C@@H](CCCCN)C(=O)N[C@@H](Cc1ccccc1)C(=O)N[C@@H](CCCCN)C(N)=O)C(C)C)C(C)C)C(C)C [CTEN2-PEG-KSLW] (HELM PEPTIDE1{E.G.L.E.P.G.[O=C(COCCOCCN[*:1])[*:2]].K.K.V.V.F.W.V.K.F.K.[am]}$$$$V2.0; N-terminus assumed), the “MIC B. cereus” value (B. cereus) is reported as over 125 µg/mL, the “MIC E.coli” value [1] is reported as over 125 µg/mL and the “MIC P. aeruginosa” value [2] is reported as over 125 µg/mL. For the same compound, the “MIC S.aureus” value [3] was over 125 µg/mL, the “MIC S. epidermidis” value [4] was 7.8 µg/mL (≈ 3.83 µM) and the “Effect on HaCaT proliferation (MTT), in words” value [5] was “noticeable pro-proliferatory activity”. For the same compound, the “Effect on fibroblast cell count (MTT), in words” value [6] was “highest cell count” and the α-helicity [7] was 27%.
